In ChEMBL document CHEMBL3351499, “'Click' glycosylation of peptides through cysteine propargylation and CuAAC” (Bioorg Med Chem, 2014):
Residues, ends and D or L forms follow the SMILES beside them. *: point of attachment. X3 = OC[C@H]1O[C@H](OCCn2cc(C*)nn2)[C@@H](O)[C@@H](O)[C@@H]1O; X4 = OC[C@H]1O[C@@H](OCCn2cc(C*)nn2)[C@H](O)[C@@H](O)[C@@H]1O; X6 = O[C@@H]1[C@@H](O)[C@@H](OCCn2cc(C*)nn2)O[C@H](CF)[C@H]1O; X1 = OC[C@H]1O[C@@H](OCCn2cc(C*)nn2)[C@H](O)[C@@H](O)[C@H]1O; X2 = O[C@@H]1[C@@H](O)[C@H](OCCn2cc(C*)nn2)O[C@H](CF)[C@H]1O; X5 = O[C@@H]1[C@H](O)[C@@H](OCCn2cc(C*)nn2)O[C@H](CF)[C@H]1O

Test: Antiplatelet activity in citrated human platelet rich plasma assessed as inhibition of ADP-induced platelet aggregation incubated for 10 mins at 37 degC by light transmission aggregometry
Assay type: functional

SMILES | IC50 [µM]
NC(N)=NCCC[C@H](N)C(=O)NCC(=O)N[C@@H](CC(=O)O)C(=O)O | 319
CC(C)[C@@H]1NC(=O)[C@H](Cc2ccccc2)NC(=O)[C@H](CC(=O)O)NC(=O)CNC(=O)[C@H](CCCNC(=N)N)NC1=O | 72
N=C(N)NCCC[C@@H]1NC(=O)[C@H](CSCc2cn(CCO[C@@H]3O[C@H](CF)[C@@H](O)[C@H](O)[C@H]3O)nn2)NC(=O)[C@H](Cc2ccccc2)NC(=O)[C@H](CC(=O)O)NC(=O)CNC1=O | 148
N=C(N)NCCC[C@H](N)C(=O)NCC(=O)N[C@@H](CC(=O)O)C(=O)N[C@@H](CSCc1cn(C[C@H]2O[C@H](O[C@H]3O[C@H](Cn4cc(CSC[C@H](NC(=O)[C@H](CC(=O)O)NC(=O)CNC(=O)[C@@H](N)CCCNC(=N)N)C(=O)O)nn4)[C@@H](O)[C@H](O)[C@H]3O)[C@@H](O)[C@@H](O)[C@@H]2O)nn1)C(=O)O | 76.5
N=C(N)NCCC[C@H](N)C(=O)NCC(=O)N[C@@H](CC(=O)O)C(=O)N[C@@H](CSCc1cn(CCO[C@@H]2O[C@H](CO)[C@H](O)[C@H](O)[C@H]2O)nn1)C(=O)O (H-RGDC(X1)-OH) | 23
N=C(N)NCCC[C@H](N)C(=O)NCC(=O)N[C@@H](CC(=O)O)C(=O)N[C@@H](CSCc1cn(CCO[C@@H]2O[C@H](CF)[C@@H](O)[C@H](O)[C@H]2O)nn1)C(=O)O (H-RGDC(X2)-OH) | 66
N=C(N)NCCC[C@H](N)C(=O)NCC(=O)N[C@@H](CC(=O)O)C(=O)N[C@@H](CSCc1cn(CCO[C@H]2O[C@H](CO)[C@@H](O)[C@H](O)[C@@H]2O)nn1)C(=O)O (H-RGDC(X3)-OH) | 47.6
N=C(N)NCCC[C@H](N)C(=O)NCC(=O)N[C@@H](CC(=O)O)C(=O)N[C@@H](CSCc1cn(CCO[C@@H]2O[C@H](CO)[C@@H](O)[C@H](O)[C@H]2O)nn1)C(=O)O (H-RGDC(X4)-OH) | 44
N=C(N)NCCC[C@H](N)C(=O)NCC(=O)N[C@@H](CC(=O)O)C(=O)N[C@@H](CSCc1cn(CCO[C@H]2O[C@H](CF)[C@@H](O)[C@H](O)[C@@H]2O)nn1)C(=O)O (H-RGDC(X5)-OH) | 23.5
N=C(N)NCCC[C@H](N)C(=O)NCC(=O)N[C@@H](CC(=O)O)C(=O)N[C@@H](CSCc1cn(CCO[C@H]2O[C@H](CF)[C@@H](O)[C@H](O)[C@H]2O)nn1)C(=O)O (H-RGDC(X6)-OH) | 26
NC(N)=NCCC[C@H](N)C(=O)NCC(=O)N[C@@H](CC(=O)O)C(=O)N[C@@H](CS)C(=O)O (H-RGDC-OH) | 322
N=C(N)NCCC[C@@H]1NC(=O)[C@H](CS)NC(=O)[C@H](Cc2ccccc2)NC(=O)[C@H](CC(=O)O)NC(=O)CNC1=O (cyclo(RGDFC)) | 65
